Molecules are shown by their SMILES. Records with an inconclusive call do not appear. Active and inactive are the calls of the source. How the calls were made is not given here.

The data set has as its system S. typhimurium/E. coli reverse mutation, colony counts. The data set can be described thus: Bacterial reverse mutation test (aka Ames test) summary data. A digest of the protocol: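 Revertant colony counts on plates, compared with untreated controls, after about two days of growth. Exposure with or without liver S9 (rat/hamster/mouse), dose range per strain, 20-min 37° C preincubation or direct plate incorporation. Strains: his⁻ Salmonella, trp⁻ E. coli WP2 uvrA pKM101.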
On the technique in general: The Ames test detects mutagens through reverse mutation in bacteria.
Take `Nc1nc2cc(Cl)c(Cl)cc2s1`: the outcome was “inactive; negative”.

For the compound `O=[N+]([O-])c1cccc2c([N+](=O)[O-])cccc12`, the outcome is “active; positive”.

Turning to `C=C(C)C`, the outcome was “inactive; negative”.

`O=C(CCl)c1ccccc1`: the outcome is “inactive; negative”.

Take `Clc1nc2ccccc2nc1Cl`: the outcome is “inactive; negative”.

As to `CN(C)C(=O)Nc1ccc(Cl)cc1`, the outcome is “inactive; negative”.

Regarding `CC(C)COC(=O)c1ccccc1N`, the outcome was “inactive; negative”.

With `CCCCCC`, the outcome was “inactive; negative”.

For the compound `Clc1c(Cl)c(Br)c2c(c1Cl)-c1nc-2nc2[n-]c(nc3nc(nc4[n-]c(n1)c1c(Cl)c(Br)c(Cl)c(Br)c41)-c1c(Cl)c(Cl)c(Br)c(Cl)c1-3)c1c(Br)c(Cl)c(Br)c(Cl)c21.[Cu+2]`, the outcome was “active; positive”.

Take `Oc1c(Cl)ccc(Cl)c1Cl`: the outcome was “inactive; negative”.

For `OCc1ccccc1`, the outcome was “inactive; negative”.

On to `Clc1ccc(C(Cl)(Cl)Cl)cc1Cl`, for which the outcome is “active; positive”.

Regarding `CCCC(C)=O`, the outcome is “inactive; negative”.

As to `O=C1CCCO1`, the outcome was “inactive; negative”.

As to `O=C(Cl)C(Cl)Cl`, the outcome is “active; positive”.

As to `CC(O)CN(CC(C)O)CC(C)O` (stereo not drawn), the outcome is “inactive; negative”.

On to `CN=C=O`, for which the outcome was “inactive; negative”.

As for `c1cc2c3c(c1)ccc1cccc(c13)C2`, the outcome is “active; positive”.

For the compound `CCCCOC(=O)c1ccccc1C(=O)OCc1ccccc1`, the outcome was “inactive; negative”.

On to `CC(=O)c1ccccc1[N+](=O)[O-]`, for which the outcome is “inactive; negative”.

As for `Cc1cccc(C(=O)O)c1[N+](=O)[O-]`, the outcome is “active; positive”.

`N#CCCl`: the outcome was “inactive; negative”.

Turning to `CCS(=O)CCSP(=O)(OC)OC` (stereo not drawn), the outcome is “active; positive”.

As to `Cc1ccccc1N`, the outcome was “active; positive”.

Take `COc1ccc(C(=O)c2ccccc2O)c(O)c1`: the outcome is “active; positive”.

Turning to `CN(C)C`, the outcome is “inactive; negative”.

`ClC=CC[N+]12CN3CN(CN(C3)C1)C2`: the outcome is “active; weakly positive”.

As for `Cc1cc(N)ccc1-c1ccc(N)cc1C`, the outcome is “active; positive”.

Consider `CCC(C)=NO`, for which the outcome was “active; positive”.

For the compound `COCC1CO1` (stereo not drawn), the outcome was “active; positive”.

For `[N-]=[N+]=[N-]`, the outcome is “active; positive”.

For `c1ccc2ncccc2c1`, the outcome was “active; positive”.

Take `COC(=O)NC(=S)Nc1ccccc1NC(=S)NC(=O)OC`: the outcome was “active; positive”.

Consider `Cc1ccc(N)c(N)c1`, for which the outcome is “active; positive”.

`[O-][N+](=Nc1ccc(Cl)c(Cl)c1)c1ccc(Cl)c(Cl)c1`: the outcome is “inactive; negative”.

On to `O=C(O)CC[N+](=O)[O-]`, for which the outcome is “active; positive”.

For `O=C1N(CO)C(O)C(O)N1CO` (stereo not drawn), the outcome is “active; positive”.

Turning to `Cc1ccc2oc(=O)ccc2c1`, the outcome is “inactive; negative”.

With `FC(F)(F)C(Cl)Br` (stereo not drawn), the outcome is “inactive; negative”.

On to `Oc1cc(Cl)ccc1Cl`, for which the outcome was “inactive; negative”.

As to `CC[C@H]1CN2CCc3cc(OC)c(OC)cc3[C@@H]2C[C@@H]1C[C@H]1NCCc2cc(OC)c(OC)cc21`, the outcome was “inactive; negative”.

Take `CCCC=O`: the outcome is “inactive; negative”.

As for `c1ccc2cc3ccccc3cc2c1`, the outcome was “active; weakly positive”.

Take `C=CCOC(=O)c1ccccc1N`: the outcome was “inactive; negative”.

Consider `O=c1ccc(O)n[nH]1`, for which the outcome was “active; weakly positive”.

On to `[Cl-].[Cl-].[Sn+2]`, for which the outcome was “inactive; negative”.

As for `CCCCN1CCCCC1C(=O)Nc1c(C)cccc1C` (stereo not drawn), the outcome is “inactive; negative”.

On to `C=C1C/C(=C/C)C(=O)O[C@@H]2CCN3CC=C(COC(=O)[C@@]1(O)CO)[C@H]23`, for which the outcome was “active; positive”.

On to `Oc1c(I)cc(Cl)c2cccnc12`, for which the outcome was “inactive; negative”.

Take `CCCC(O)C(CC)CO` (stereo not drawn): the outcome was “inactive; negative”.

Regarding `O=[N+]([O-])C(Br)(CO)CO`, the outcome was “inactive; negative”.

`CN(C)c1ccc(N=O)cc1`: the outcome was “active; positive”.

Regarding `CCOC(C)(C)C`, the outcome is “inactive; negative”.

Turning to `CC(=O)Nc1ccccc1C`, the outcome is “active; positive”.

As to `N#Cc1ccccc1`, the outcome is “inactive; negative”.

As for `CCCC(C)(COC(N)=O)COC(=O)NC(C)C` (stereo not drawn), the outcome was “inactive; negative”.

Turning to `CCCCCCCCCCCCS`, the outcome was “inactive; negative”.

Regarding `C=CC(=C)CCC=C(C)C`, the outcome was “inactive; negative”.

For `CN=[N+](C)[O-]`, the outcome is “active; weakly positive”.

Take `CCCCC(CC)COP(OCC(CC)CCCC)OCC(CC)CCCC` (stereo not drawn): the outcome was “inactive; negative”.

Regarding `c1ccoc1`, the outcome was “active; weakly positive”.

On to `Clc1ccc(C(Cl)(Cl)Cl)c(Cl)c1`, for which the outcome is “active; positive”.

Take `O[C@@H]([C@H](O)[C@H](O)CBr)[C@H](O)CBr`: the outcome was “active; positive”.

As to `CCOP(=S)(OCC)Oc1nc(Cl)c(Cl)cc1Cl`, the outcome was “inactive; negative”.

With `CC(C)(C)OC=O`, the outcome was “inactive; negative”.

For `CCOC(=O)C1OC1c1ccccc1` (stereo not drawn), the outcome was “inactive; negative”.

As for `O=Cc1ccccc1Cl`, the outcome was “inactive; negative”.

For `NC(Cc1ccc(F)cc1)C(=O)O` (stereo not drawn), the outcome is “inactive; negative”.

As to `C=C(Cl)C(=O)OC`, the outcome was “active; positive”.

On to `CS(=O)(=O)OCCCCOS(C)(=O)=O`, for which the outcome is “active; positive”.

As to `O=c1c2ccccc2c(=O)c2c1ccc1c2[nH]c2c3c(=O)c4ccccc4c(=O)c3c3[nH]c4c(ccc5c(=O)c6ccccc6c(=O)c54)c3c12`, the outcome is “inactive; negative”.

Take `O=C1c2c(Br)c(Br)c(Br)c(Br)c2C(=O)N1CCN1C(=O)c2c(Br)c(Br)c(Br)c(Br)c2C1=O`: the outcome was “inactive; negative”.

As to `FC(Cl)(Cl)Cl`, the outcome was “inactive; negative”.

`C=CC(=O)OCC(CO)(COC(=O)C=C)COC(=O)C=C`: the outcome is “inactive; negative”.

In the case of `CCCCc1ccc(N=Cc2ccc(OC)cc2)cc1`, the outcome is “active; positive”.

For the compound `O=C(O)c1ccccc1C(=O)O`, the outcome was “inactive; negative”.

On to `O=C1Nc2ccc(Cl)cc2[C@@](C#CC2CC2)(C(F)(F)F)O1`, for which the outcome was “inactive; negative”.

Turning to `CCC[CH2][Sn]([CH2]CCC)([CH2]CCC)[O][Sn]([CH2]CCC)([CH2]CCC)[CH2]CCC`, the outcome was “inactive; negative”.

`O=C(O)CC(=O)O`: the outcome was “inactive; negative”.

`[CH3][Sn]([Cl])([Cl])[Cl]`: the outcome is “inactive; negative”.

Consider `CCCCCC(=O)OCC`, for which the outcome is “inactive; negative”.

As for `NCCCCCCCCCCC(=O)O`, the outcome is “inactive; negative”.

For the compound `Nc1cc(Cl)ccc1Cl`, the outcome is “inactive; negative”.

Turning to `NCc1ccc(CN)cc1`, the outcome was “inactive; negative”.

Turning to `CCN(CC)c1ccc([N+](=O)[O-])cc1`, the outcome is “active; positive”.

For the compound `Nc1cccc(N)c1`, the outcome is “active; positive”.

As for `CCOc1ccc2c(c1)C(C)=CC(C)(C)N2`, the outcome was “inactive; negative”.

In the case of `O=[N+]([O-])c1cccc2ccccc12`, the outcome is “active; positive”.

For `NCC(=O)O`, the outcome was “inactive; negative”.

`C1CCC2OC2C1` (stereo not drawn): the outcome is “active; positive”.

Turning to `CC(N)=S`, the outcome is “inactive; negative”.

`O=S(=O)([O-])[O-].[O]=[V+2]`: the outcome was “inactive; negative”.

Turning to `OCCBr`, the outcome is “active; positive”.

With `CCCCN`, the outcome is “inactive; negative”.

Turning to `CC(C)(c1cc(Br)c(OCC(Br)CBr)c(Br)c1)c1cc(Br)c(OCC(Br)CBr)c(Br)c1` (stereo not drawn), the outcome was “inactive; negative”.

As for `c1ccc2c(c1)c1cccc3ccc4cccc2c4c31`, the outcome is “active; positive”.

As to `c1ccccc1`, the outcome is “inactive; negative”.

`ClC(Cl)=C(Cl)C(Cl)=C(Cl)Cl`: the outcome is “inactive; negative”.

Regarding `CNC[C@H](O)c1ccc(O)c(O)c1`, the outcome was “active; weakly positive”.

For `BrC/C=C/CBr`, the outcome was “active; positive”.

In the case of `C=CC(=O)OCCBr`, the outcome was “active; positive”.

For the compound `C[CH2][Hg][S]c1ccccc1C(=O)O`, the outcome was “inactive; negative”.

For `Nc1ccc(-c2ccc(N)cc2S(=O)(=O)O)c(S(=O)(=O)O)c1`, the outcome is “inactive; negative”.

In the case of `CC(C)CNCC(C)C`, the outcome is “inactive; negative”.

As to `CCn1cc[n+](C)c1`, the outcome is “inactive; negative”.

With `Nc1ccc(N)c(Cl)c1`, the outcome was “active; positive”.

`Clc1c(Cl)c(Cl)c2c(c1Cl)Oc1c(Cl)c(Cl)c(Cl)c(Cl)c1O2`: the outcome is “inactive; negative”.

Consider `CNC(=S)N(C)C`, for which the outcome is “inactive; negative”.

Turning to `CC(COc1ccccc1)N(CCCl)Cc1ccccc1` (stereo not drawn), the outcome is “active; positive”.

On to `CC(=O)c1c(C)c([N+](=O)[O-])c(C(C)(C)C)c([N+](=O)[O-])c1C`, for which the outcome is “inactive; negative”.

`NC(=Nc1ccccc1)Nc1ccccc1`: the outcome was “active; weakly positive”.

With `C=CC(=O)NCO`, the outcome was “inactive; negative”.

For `COC(C)(C)C`, the outcome was “inactive; negative”.

For the origin of these results see PubChem BioAssay AID2202554 (NIEHS Division of Translational Toxicology (DTT)).
